Values after ≈ are worked out from the molar mass of the structure shown.

In one assay the test system is bacteria. Particulars: in words; Pettit et al., J. Nat. Prod. 2000; cited from earlier work.
Another assay deals with fungi. The note with it: in words; Pettit et al., J. Nat. Prod. 2000; cited from earlier work.
A further assay relates to NCI-H460. The experiment in a line: Cancer cell growth inhibition, human cancer cell line panel. It counts as cell-based. The note with it: NCI-H460, Lung-NSC, read-out: Inhibitory Activity (GI50).
The test system of another assay is MCF-7. The description is as above. It counts as cell-based. Particulars: MCF7, MCF-7, Breast-adenocarcinoma, read-out: Inhibitory Activity (GI50).
Assay [1] deals with Stenotrophomonas maltophilia (ATCC 13637). Nature of the assay: Broth microdilution susceptibility assay. It counts as cell-based. The note with it: ATCC13637, read-out: Minimum Inhibitory Concentration. An excerpt:
(§1) Compounds were screened against bacteria and fungi according to established broth microdilution susceptibility assays, pursuant to the National Committee for Clinical Laboratory Standards, Methods for Dilution Antimicrobial Susceptibility Tests for Bacteria that Grow Aerobically, Approved Standard M7-A4, Wayne, Pa.: NCCLS, 1997, and the National Conmnittee for Clinical Laboratory Standards, Reference Method for Broth Dilution Antifungal Susceptibility Testing of Yeasts, Approved Standard M27-A, Wayne, Pa.: NCCLS, 1997. The minimum inhibitory concentration was defined as the lowest concentration of compound that inhibited all visible growth of the test organism (optically clear). Assays were repeated on separate days.

Assay [2] concerns Vancomycin-resistant E. faecalis (clinical isolate). Nature of the assay: Broth microdilution susceptibility assay. The assay is classed as cell-based. The note with it: Enterococcus faecalis, read-out: Minimum Inhibitory Concentration.
Description: as §1
(In general: Dilution methods test growth across graded concentrations, often in twofold steps.)

In assay [3] the test system is Group A Streptococcus (clinical isolate). The experiment in a line: Broth microdilution susceptibility assay. It counts as cell-based. The note with it: read-out: Minimum Inhibitory Concentration.
Description: as §1

Assay [4] relates to Escherichia coli (ATCC 25922). Nature of the assay: Broth microdilution susceptibility assay. It counts as cell-based. The note with it: ATCC25922, read-out: Minimum Inhibitory Concentration.
Description: as §1

Assay [5] has as its system Streptococcus pneumoniae (ATCC 6303). The experiment in a line: Broth microdilution susceptibility assay. Particulars: ATCC6303, read-out: Minimum Inhibitory Concentration. The assay is classed as cell-based.
Description: as §1

In assay [6] the test system is Micrococcus luteus (Presque Isle 456). The experiment in a line: Broth microdilution susceptibility assay. It counts as cell-based. Particulars: read-out: Minimum Inhibitory Concentration.
Description: as §1

Assay [7] concerns Neisseria gonorrhoeae (ATCC 49226). Nature of the assay: Broth microdilution susceptibility assay. The assay is classed as cell-based. The note with it: ATCC49226, read-out: Minimum Inhibitory Concentration.
Description: as §1

Assay [8] concerns Methicillin-resistant S. aureus (clinical isolate). The experiment in a line: Broth microdilution susceptibility assay. The note with it: Staphylococcus aureus, read-out: Minimum Inhibitory Concentration. It counts as cell-based.
Description: as §1

In assay [9] the test system is Candida albicans (ATCC 90028). The experiment in a line: Broth microdilution susceptibility assay. It counts as cell-based. Particulars: ATCC90028, read-out: Minimum Inhibitory Concentration.
Description: as §1

Assay [10] relates to Enterococcus faecalis (ATCC 29212). The experiment in a line: Broth microdilution susceptibility assay. The assay is classed as cell-based. Particulars: ATCC29212, read-out: Minimum Inhibitory Concentration.
Description: as §1

The test system of assay [11] is Cryptococcus neoformans (ATCC 90112). The experiment in a line: Broth microdilution susceptibility assay. The assay is classed as cell-based. The note with it: ATCC90112, read-out: Minimum Inhibitory Concentration.
Description: as §1

Assay [12] relates to Bacillus subtilis (clinical isolate). Nature of the assay: Broth microdilution susceptibility assay. It counts as cell-based. The note with it: read-out: Minimum Inhibitory Concentration.
Description: as §1

Assay [13] concerns Penicillin-resistant S. pneumoniae (clinical isolate). The experiment in a line: Broth microdilution susceptibility assay. It counts as cell-based. The note with it: Streptococcus pneumoniae, read-out: Minimum Inhibitory Concentration.
Description: as §1

Assay [14] deals with Invasive S. pneumoniae (clinical isolate). The experiment in a line: Broth microdilution susceptibility assay. It counts as cell-based. Particulars: Streptococcus pneumoniae, read-out: Minimum Inhibitory Concentration.
Description: as §1

For assay [15], the system named is Enterobacter cloacae (ATCC 13047). Nature of the assay: Broth microdilution susceptibility assay. The assay is classed as cell-based. Particulars: ATCC13047, read-out: Minimum Inhibitory Concentration.
Description: as §1

The test system of assay [16] is Staphylococcus aureus (ATCC 29213). The experiment in a line: Broth microdilution susceptibility assay. It counts as cell-based. The note with it: ATCC29213, read-out: Minimum Inhibitory Concentration.
Description: as §1

For a further assay, the system named is DU-145. The experiment in a line: Cancer cell growth inhibition, human cancer cell line panel. It counts as cell-based. Particulars: DU-145, Prostate, read-out: Inhibitory Activity (GI50).
The test system of a further assay is KM20L2. The description is as above. Particulars: KM-20L2, KM20L2, Colon-adenocarcinoma, read-out: Inhibitory Activity (GI50). The assay is classed as cell-based.
The test system of a further assay is BXPC-3. The description is as above. It counts as cell-based. The note with it: BXPC-3, Pancreas-adenocarcinoma, read-out: Inhibitory Activity (GI50).
In a further assay the test system is SF-268. Described as above. It counts as cell-based. The note with it: SF-268, CNS Glioblastoma, read-out: Inhibitory Activity (GI50).
Assay [17] deals with P388 lymphocytic leukemia. Nature of the assay: Cancer cell growth inhibition, murine P388 lymphocytic leukemia. The assay is classed as cell-based, mouse. An excerpt: Earlier we had observed a number of biologically active blue to black colored fractions arising during P388 lymphocytic leukemia guided separations of a 195 g dichloromethane-soluble portion of the extract obtained from 350 kg (wet wt.) of Cribrochalina sp. The cancer cell growth (P-388) inhibitory dark-colored fractions were finally separated by a successive series of gel permeation and partition chromatographic techniques on Sephadex LH-20. That sequence was followed by high-speed countercurrent distribution using an Ito Coil-Planet centrifuge to afford 88 mg of a dark-blue constituent (P388 ED50 0.3 μg/ml), designated cribrostatin 6 (3). Owing to difficulties in unequivocally deducing the structure of this interesting substance based on spectral evidence, attempts were made at various times over a ten year period to reach a correct solution and/or to produce crystals suitable for X-ray structure determination. We were eventually pleased to find that cribrostatin 6 (3) would crystallize from acetone following long cold storage of the solution. To follow is a summary of the spectral and X-ray crystallographic interpretation that completed a correct structural assignment for cribrostatin 6 (3).
Isolation of Cribrostatin 6 (1). The blue marine sponge Cribrochalina sp. was collected and extracted as known to one of skill in the art, as described in Pettit, G., et al., J. Nat. Prod. […]

Consider `CC1=C(N)C(=O)c2c(ccnc2C)C1=O` [Cribrostatin 1], for which, in the assay on bacteria, the antibacterial activity entry is “antibacterial”. For the same compound, the antifungal activity entry in the assay on fungi was “not antifungal”.

For `C/C=C(/C)C(=O)OCc1nccc2c1C(=O)C(N)=C(C)C2=O` [Cribrostatin 3], the antibacterial activity entry in the assay with bacteria was “antibacterial”. Further, the antifungal activity result in the assay with fungi was “not antifungal”.

With `CCOC1=C(C)C(=O)c2ccn3c(C)ncc3c2C1=O` [Cribrostatin 6, 9-ethoxy-3,8-dimethyl-imidazo[5,1-a]isoquinoline-7, 10-dione], the GI50 (usually the concentration giving 50% growth inhibition) with NCI-H460 is over 1 µg/mL; with MCF-7 it was 0.21 µg/mL (≈ 0.777 µM); in the assay with DU-145, 0.38 µg/mL (≈ 1.41 µM); in the assay with KM20L2, over 1 µg/mL; with BXPC-3, over 1 µg/mL; in the assay on SF-268 it was 0.24 µg/mL (≈ 0.888 µM). Besides, the GI50 in assay [17] (P388, Mouse Leukemia, read-out: Inhibitory Activity (GI50)) was 0.29 µg/mL (≈ 1.07 µM). In addition, the MIC in assay [1] is over 64 µg/mL; in assay [2] it was 32 µg/mL (≈ 118 µM); in assay [3], 16 µg/mL (≈ 59.2 µM); in assay [4], over 64 µg/mL; in assay [5], 0.5 µg/mL (≈ 1.85 µM); in assay [6] it was 16 µg/mL (≈ 59.2 µM). Moreover, the MIC in assay [7] was found to be 0.0625 µg/mL (≈ 0.231 µM); in assay [8], 16 µg/mL (≈ 59.2 µM); in [9], 64 µg/mL (≈ 237 µM); in assay [10] it was 32 µg/mL (≈ 118 µM); in assay [11] it was 2 µg/mL (≈ 7.4 µM); in assay [12], 2 µg/mL (≈ 7.4 µM). Besides, the MIC in assay [13] is 2 µg/mL (≈ 7.4 µM); in assay [14] it was 1 µg/mL (≈ 3.7 µM); in [15] it was over 64 µg/mL; in assay [16] it was 16 µg/mL (≈ 59.2 µM). Besides, in assay [17] (murine P-388 lymphocytic leukemia cell line), the “P388 ED50” value was found to be 0.3 µg/mL.

These data come from US7317020B2, “Isolation and structure of Cribrostatin 6” (Arizona Board of Regents, a body corporate of the State of …, priority 2003, dated 2008).
